{"source": "patent US11413337B2", "about": "“Peptide conjugated particles for the treatment of inflammation” (Northwestern University, priority 2012, dated 2022)", "key": {"[1]": {"system": "Relapsing Experimental Autoimmune Encephalitis", "assay": "treatment of active R-EAE at day 10, route of administration", "assay_type": "in vivo, mouse", "protocol": "Experiments were conducted during development of embodiments of the present invention to investigate the ability of the PLG-PLP139-151 particles to treat disease rather than prevent disease, and to determine whether the route of administration affected the development of disease. Mice were immunized at day 0 with PLP139-151 and an adjuvant. Mice normally have maximal clinical scores at day 12-14. In this model, the mice were treated at day 10 with the PLG-PLP139-151 particles or with control PLG-OVA323-339 particles either via intravenous (iv) administration, intraperitoneal (ip) administration, subcutaneous (sc) administration, or orally. […] This is in contrast to animals treated with PLP139-151 polystyrene particles, whereby >70% of animals where observed to die from anaphylaxis."}, "[2]": {"system": "Relapsing Experimental Autoimmune Encephalitis (R-EAE)", "assay": "prophylactic tolerance in PLP139-151/CFA-induced R-EAE, particles given day −7", "assay_type": "in vivo, mouse", "settings": "for clinical score: treated day −7"}, "cervical spinal cord": {"system": "cervical spinal cord", "assay": "spinal cord histology and in vivo imaging in R-EAE", "design": "species or system mouse", "protocol": "An additional therapeutic tolerance strategy was performed by delivering PLP139-151-PLG or OVA323-339 PLG to mice. […] Mice were treated with PLP-PLG or OVA323-339-PLG and the tissue was retrieved at day 40. The cervical spinal cord was isolated and sectioned to investigate the immune response within the CNS, which underlies the pathology of R-EAE and multiple sclerosis.\nThe clinical scores and percent incidence of EAE were determined (FIG. 10B) and the spinal cords observed via in vivo imaging (FIGS. 10A and 11). […] The bar graphs give the numerical numbers to the signal strength shown in the brain and SC scans."}, "adoptive EAE": {"system": "adoptive EAE", "assay": "adoptive transfer EAE treated with antigen-coupled PLG particles", "assay_type": "in vivo, mouse", "settings": "for mean clinical score: treated at day 2", "protocol": "Experiments were conducted during development of embodiments of the present invention to investigate a second model of active disease termed adoptive transfer. Rather than immunizing the animals with the peptide, the lymphocytes from the spleen of mice with active disease were transferred to a recipient, who would subsequently develop disease. Experiments were conducted during development of embodiments of the present invention to characterize the ability of the PLG nanoparticles to deactivate the adoptively transferred activated effector cells.\nTherapeutic tolerance induced by PLP139-151-PLG particles was compared in active and adoptive EAE. Adoptive EAE was induced in six to eight-week old female SJL/J mice by adoptive transfer of 2.5×10^6 PLP139-151-activated blasts. Mice were injected iv with PLP139-151 (squares) or OVA323-339 (circles) peptide coupled to 500 nm PLG nanoparticles 2 days (FIG. 14A) or 14 days (FIG. 14C) following disease induction. Clinical disease scores were compared to those following treatment with antigen-coupled splenocytes (FIG. 14A). Brain and spinal cord were collected from PLP139-151- or OVA323-339-tolerized mice for histological analysis on day 42. Sections from mice from panel A were stained for PLP protein and CD45 (FIG. 14B). Spinal cord sections from mice from panel C were stained with Luxol Fast Blue (FIG. 14D). Areas of demyelination and cellular infiltration are indicated by arrows.\nSJL/J mice were injected i.v. with 500 nm PLG nanoparticles coupled with PLP139-151 (squares) or OVA323-339 (circles) 2 days following EAE induction by adoptive transfer. At the peak of disease (day 14) brains and spinal cords were removed and the number of lymphocytes (FIG. 16B), APCs (FIG. 16C), microglia (FIG. 16D), peripheral dendritic cells (FIG. 16E), myeloid dendritic cells (FIG. 16F) and macrophages (FIG. 16G) were enumerated by flow cytometry. The gating strategy for these populations is depicted in (FIG. 16A). CNS cell preparations were stimulated with PMA and ionomycin for 5 h prior to intracellular staining for IL-17A and IFN-γ (FIG. 16H)."}, "SJL/J mice with EAE": {"system": "SJL/J mice with EAE", "assay": "iv injection during EAE remission (day 21), anaphylaxis", "assay_type": "in vivo, mouse", "settings": "administration during remission, d21", "protocol": "EAE was induced in six to eight week old female SJL/J mice by subcutaneous injection of PLP139-151 in CFA, and development of clinical disease was monitored and recorded (FIG. 5B). On d21 relative to disease induction, mice were given iv injections of soluble PLP139-151 (clear squares), soluble OVA323-339 (clear circles), or the same peptides coupled to PLG nanoparticles (solids). Temperature of animals was monitored and recorded every 10 minutes for 1 hour following injection (FIG. 5A)."}, "CD45.1 donor cells": {"system": "CD45.1 donor cells", "assay": "engraftment of male CD45.1 bone marrow cells in female CD45.2 mice", "assay_type": "in vivo, mouse", "text": "Female CD45.2 mice were tolerized with either OVA-PLG or the control peptide Dby-PLG (the major H-Y antigen expressed by Male C57BL/6 mice) on day −7. On day −1, the mice were irradiated with 200 rads and were then transplanted with 1×10^6, 5×10^6, or 1×10^7 bone marrow cells from male CD45.1 mice on day 0. The recipient mice were then tolerized with either OVA-PLG, Dby-SP, or Dby-PLG on day 1 and the blood harvested for FACS analysis of chimerism."}, "[3]": {"system": "allergic airway inflammation", "assay": "therapeutic allergic airway inflammation, OVA/Alum", "assay_type": "in vivo, mouse", "protocol": "To test the therapeutic effect of OVA encapsulated in PLG particles on airway inflammation, mice were treated intraperitoneally with OVA/Alum at a dose of 10 μg/mouse on day 0 and day 14. The mice were intravenously administered with OVA-PLG on days 28, and 42. Between days 56-58, the mice were treated three times with aerosolized OVA.\nThe animals were treated as described above except that on days 28 and 42, the mice were treated with either OVA encapsulated in PLG particles, or OVA coupled to PLG particles."}, "mediastinal lymph nodes": {"system": "mediastinal lymph nodes", "assay": "OVA-specific in vitro recall responses from mediastinal lymph nodes", "assay_type": "cell-based, mouse", "text": "Moreover treatment with OVA-PLG decreases the release of cytokines after restimulation with OVA."}, "[4]": {"system": "allergic airway inflammation", "assay": "prophylactic allergic airway inflammation, OVA/Alum", "assay_type": "in vivo, mouse", "protocol": "To test the prophylactic effect of OVA encapsulated in PLG particles on airway inflammation, mice were treated intravenously with OVA-PLG at day −7. On day 0, the mice received intraperitoneal injections of OVA/Alum at a dose of 10 μg/mouse. On day 7, the mice were again treated intravenously with OVA-PLG and received another 10 μg/mouse ip injection of OVA/Alum on day 14. Between days 28 and 30, the mice were treated three times with aerosolized OVA."}, "[5]": {"system": "OVA/Alum pre-sensitized mice", "assay": "anaphylaxis-induced temperature drop in OVA/Alum pre-sensitized animals", "assay_type": "in vivo, mouse", "settings": "iv on day 28; within 1 hour of delivering", "protocol": "Due to the presence of active disease, anaphylaxis to the antigens is a concern, which could result in immediate mortality, and has been described with polystyrene bound particles. Anaphylaxis is associated with a significant drop in body temperature. To test whether intravenous administration of OVA-PLG induces an anaphylaxis-induced temperature drop in pre-sensitized animals, mice were immunized at day 0 with 10 μg OVA/Alum via intraperitoneal injection. On day 14, the mice were again immunized with 10 μg OVA/Alum via intraperitoneal injection, and then tolerized with OVA-PLG administered intravenously on day 21. On day 28, the mice were then tolerized with either OVA-PLG particles or OVA via intravenous administration."}}, "note": "Where no end group is shown, it is not given here.", "data": [{"molecule": "PLP139-151 polystyrene particles: PLP139-151 bound to polystyrene particles (CHCLGKWLGHPDK; cysteine pairing not given here; also: bound to polystyrene particles; UniProt P60202 139-151, looked up, fragment) [reference compound]", "values": [{"measurement": "animals observed to die from anaphylaxis", "setting": "[1]; mouse, in vivo", "value": "> 70", "unit": "%"}]}, {"molecule": "PLP139-151-PLG: immunodominant proteolipid protein PLP139-151 epitope coupled to 500 nm PLG nanoparticles (CHCLGKWLGHPDK; cysteine pairing not given here; also: coupled to 500 nm PLG nanoparticles; UniProt P60202 139-151, looked up, fragment)", "values": [{"measurement": "down-regulating induction of R-EAE, by type of particle", "setting": "[2]; day −7, FIGS. 3A and 3B", "value": "more effective in down-regulating induction of R-EAE"}, {"measurement": "delayed-type hypersensitivity (DTH) responses", "setting": "[2]; to immunizing PLP139-151 epitope", "value": "lack of delayed-type hypersensitivity (DTH) responses"}, {"measurement": "clinical score", "setting": "[2]; all time points except days 20 to 30", "value": 0}, {"measurement": "clinical score", "setting": "[2]; between days 20 and 30", "value": "under 1"}, {"measurement": "prevention of disease induction", "setting": "[2]; treated day −7 relative to immunization", "value": "specifically prevented EAE development"}, {"measurement": "disease (mean clinical score)", "setting": "[1]; active EAE, iv 10 days following disease induction (FIG. 15A)", "value": "reduced disease"}, {"measurement": "development of disease", "setting": "[1]; administered intravenously", "value": "did not develop disease"}, {"measurement": "mean clinical scores", "setting": "[1]; administered intravenously, at most time points", "value": 0}, {"measurement": "efficiency of tolerance by route of administration", "setting": "[1]; iv, ip, sc or oral, FIG. 7", "value": "most efficient when the PLG-PLP139-151 particles are administered either intravenously or intraperitoneally"}, {"measurement": "immune cell infiltration within the spinal cord", "setting": "cervical spinal cord; day 40", "value": "reduction in immune cell infiltration"}, {"measurement": "cervical spinal cord inflammation and demyelination", "setting": "cervical spinal cord; histological analysis, tissue retrieved at day 40", "value": "inhibits cervical spinal cord inflammation and demyelination"}, {"measurement": "blood brain barrier (BBB) disruption and macrophage activation in the spinal cord", "setting": "cervical spinal cord; in vivo imaging, Angiosense and prosense", "value": "inhibits blood brain barrier (BBB) disruption and macrophage activation"}, {"measurement": "staining for CD45, CD4, and CD11b", "setting": "cervical spinal cord; spinal cord, day 40", "value": "minimal staining"}, {"measurement": "disease (mean clinical score)", "setting": "adoptive EAE; adoptive EAE, iv 2 days following disease induction (FIG. 15B)", "value": "reduced disease"}, {"measurement": "tolerance induction in adoptive EAE", "setting": "adoptive EAE; iv 2 or 14 days following disease induction", "value": "tolerance is induced"}, {"measurement": "infiltration of central nervous system immune cells", "setting": "adoptive EAE; iv day 2, peak of disease (day 14), flow cytometry", "value": "drastically reduced"}, {"measurement": "mean clinical score", "setting": "adoptive EAE; all but two time points through day 40", "value": 0}, {"measurement": "mean clinical score", "setting": "adoptive EAE; the other two time points", "value": 0.25}, {"measurement": "anaphylaxis-associated mortality", "setting": "SJL/J mice with EAE", "value": "does not result in any anaphylaxis-associated mortality"}]}, {"molecule": "OVA-PLG: OVA with PLG particles: coupled in Example 3, encapsulated in Examples 12 and 13, OVA323 peptide control in Example 16", "values": [{"measurement": "engraftment, one mouse", "setting": "CD45.1 donor cells; Day −7, Day +1 group, FIG. 28", "value": 12, "unit": "%"}, {"measurement": "engraftment (percent of donor CD45.1 cells), individual mice", "setting": "CD45.1 donor cells; tolerized day 1, FIG. 27", "value": "~10", "unit": "%"}, {"measurement": "eosinophils in the lung", "setting": "[3]", "value": "reduced"}, {"measurement": "levels of serum OVA IgE", "setting": "[3]", "value": "reduced"}, {"measurement": "secretion of IL-4, IL-5, IL-13 and IL-10", "setting": "[3]; iv days 28 and 42", "value": "decreased"}, {"measurement": "lymph node proliferation", "setting": "mediastinal lymph nodes; after restimulation with 25 μg OVA", "value": "decreased"}, {"measurement": "levels of IL-4, IL-5, IL-13, and IL-10", "setting": "mediastinal lymph nodes; after restimulation with OVA", "value": "decreased"}, {"measurement": "eosinophils in the lung", "setting": "[4]", "value": "reduced"}, {"measurement": "levels of serum OVA IgE", "setting": "[4]", "value": "reduced"}, {"measurement": "secretion of IL-4, IL-5, IL-13 and IL-10", "setting": "[4]; iv day −7 and day 7", "value": "decreased"}]}, {"molecule": "OVA-PLG: OVA with PLG particles: coupled in Example 3, encapsulated in Examples 12 and 13, OVA323 peptide control in Example 16 (conjugate, UniProt P01012 2-386, looked up, coupled to or encapsulated in PLG particles) Ovalbumin: GSIGAASMEFCFDVFKELKVHHANENIFYCPIAIMSALAMVYLGAKDSTRTQINKVVRFDKLPGFGDSIEAQCGTSVNVHSSLRDILNQITKPNDVYSFSLASRLYAEERYPILPEYLQCVKELYRGGLEPINFQTAADQARELINSWVESQTNGIIRNVLQPSSVDSQTAMVLVNAIVFKGLWEKAFKDEDTQAMPFRVTEQESKPVQMMYQIGLFRVASMASEKMKILELPFASGTMSMLVLLPDEVSGLEQLESIINFEKLTEWTSSNVMEERKIKVYLPRMKMEEKYNLTSVLMAMGITDVFSSSANLSGISSAESLKISQAVHAAHAEINEAGREVVGSAEAGVDAASVSEEFRADHPFLFCIKHIATNAVLFFGRCVSP", "values": [{"measurement": "body temperature", "setting": "[5]", "value": "No decrease in body temperature"}]}, {"molecule": "soluble OVA: soluble ovalbumin given intravenously (protein, UniProt P01012 2-386, looked up) Ovalbumin: GSIGAASMEFCFDVFKELKVHHANENIFYCPIAIMSALAMVYLGAKDSTRTQINKVVRFDKLPGFGDSIEAQCGTSVNVHSSLRDILNQITKPNDVYSFSLASRLYAEERYPILPEYLQCVKELYRGGLEPINFQTAADQARELINSWVESQTNGIIRNVLQPSSVDSQTAMVLVNAIVFKGLWEKAFKDEDTQAMPFRVTEQESKPVQMMYQIGLFRVASMASEKMKILELPFASGTMSMLVLLPDEVSGLEQLESIINFEKLTEWTSSNVMEERKIKVYLPRMKMEEKYNLTSVLMAMGITDVFSSSANLSGISSAESLKISQAVHAAHAEINEAGREVVGSAEAGVDAASVSEEFRADHPFLFCIKHIATNAVLFFGRCVSP", "values": [{"measurement": "body temperature", "setting": "[5]", "value": "decrease in temperature"}]}]}
